Results from patent publication US20100056526A1, “HETEROMONOCYCLIC COMPOUND AND USE THEREOF” (Takeda Pharmaceutical Company Limited, priority 2006, published 2010).
Where a name gives a salt, the structure may show the parent alone. Read-outs that look alike come from different tables or passages of the source.

What was measured:
[1] = target: T1, human AT1 receptor (Homo sapiens, UniProt P30556); experiment: Binding assay using human AT1 receptor-expressing CHO-K1 cell membrane fraction ([125I]-angiotensin II); conditions: 22.5 pM [125I]-angiotensin II, 9 μg AT1 membrane, 1 hr room temperature; read-out: AT1 receptor binding inhibitory action (IC50 (nM))
T1 construct: expressed in transfected cells; host or cells: CHO-K1
T1 sequence (P30556 1-359): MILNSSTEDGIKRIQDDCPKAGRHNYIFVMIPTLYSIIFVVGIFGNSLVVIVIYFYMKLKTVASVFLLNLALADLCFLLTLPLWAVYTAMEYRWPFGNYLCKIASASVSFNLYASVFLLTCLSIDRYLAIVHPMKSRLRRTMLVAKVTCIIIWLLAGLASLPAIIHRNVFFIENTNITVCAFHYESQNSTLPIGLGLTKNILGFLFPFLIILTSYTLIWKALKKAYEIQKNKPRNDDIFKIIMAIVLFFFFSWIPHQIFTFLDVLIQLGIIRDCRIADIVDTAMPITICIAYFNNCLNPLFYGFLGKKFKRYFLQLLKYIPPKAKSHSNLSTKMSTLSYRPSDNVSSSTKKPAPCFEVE
Summary of the method: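 CHO-K1 membranes stably expressing AT1 (9 μg) incubated with 22.5 pM [125I]-angiotensin II and compound in 50 mM Tris pH 7.4, 10 mM MgCl2, with or without 0.3 mg/mL fatty acid-free BSA, 1 hr at room temperature. Bound radioactivity counted after GF/C filtration; nonspecific binding with 1 μM CV-11974; IC50 calculated.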

[2] = target: T2, PPARγ (Homo sapiens, UniProt P37231); experiment: Evaluation of PPARγ activating action (luciferase reporter in PPARγ:RXRα:4ERPP/CHO-K1 cells); format: cell-based; conditions: CHO-K1, 24 h, read-out: PPARγ activating action (activation % (10^−6 M))
T2 construct: expressed in transfected cells; host or cells: CHO-K1
T2 sequence (P37231 1-477 isoform P37231-2): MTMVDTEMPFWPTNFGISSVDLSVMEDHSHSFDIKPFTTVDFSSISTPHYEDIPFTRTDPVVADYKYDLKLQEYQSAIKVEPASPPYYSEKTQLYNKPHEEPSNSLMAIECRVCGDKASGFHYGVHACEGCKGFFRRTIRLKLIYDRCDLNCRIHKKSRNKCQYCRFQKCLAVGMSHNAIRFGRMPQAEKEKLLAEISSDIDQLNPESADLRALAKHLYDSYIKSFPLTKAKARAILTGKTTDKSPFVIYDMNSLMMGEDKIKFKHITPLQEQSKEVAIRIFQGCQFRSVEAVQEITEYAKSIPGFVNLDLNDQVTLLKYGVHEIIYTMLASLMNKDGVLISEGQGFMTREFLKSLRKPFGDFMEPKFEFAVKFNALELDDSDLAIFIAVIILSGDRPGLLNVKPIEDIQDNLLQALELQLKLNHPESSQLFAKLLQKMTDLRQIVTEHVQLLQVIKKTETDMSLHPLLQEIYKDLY
T2 sequence (P19793 1-462 partner): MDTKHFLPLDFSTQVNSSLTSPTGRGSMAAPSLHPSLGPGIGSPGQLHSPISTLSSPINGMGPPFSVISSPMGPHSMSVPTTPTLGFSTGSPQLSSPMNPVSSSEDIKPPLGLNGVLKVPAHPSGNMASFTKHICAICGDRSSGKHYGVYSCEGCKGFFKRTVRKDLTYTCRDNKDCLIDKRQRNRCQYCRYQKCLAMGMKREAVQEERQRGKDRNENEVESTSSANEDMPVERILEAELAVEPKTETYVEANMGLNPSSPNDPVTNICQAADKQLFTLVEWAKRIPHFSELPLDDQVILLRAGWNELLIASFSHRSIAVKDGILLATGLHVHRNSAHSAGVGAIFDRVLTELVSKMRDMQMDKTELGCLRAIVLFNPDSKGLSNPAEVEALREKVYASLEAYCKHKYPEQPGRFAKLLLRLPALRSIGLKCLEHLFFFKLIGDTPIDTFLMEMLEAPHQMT
Summary of the method: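 CHO-K1 cells stably carrying PPARγ, RXRα and a 4ERPP luciferase reporter were treated with compound for 1 day at 37 °C in F12 medium with 0.1% fatty acid-free BSA. Luciferase activity was read and scaled between no compound (0%) and reference agonist compound X at 1 μM (100%).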

[3] = test compound 10^−6 M, luciferase activity relative to control compound X (1 μM) = 100%, non-administration group = 0%

SMILES	IC50 [1]	activation at 1 µM [2]	activation at 1 µM [2, 3]
CCCc1nc(CC)n(-c2ccc(OC)cc2)c(=O)c1Cc1ccc(-c2ccccc2-c2noc(O)n2)cc1 [Example 313, 2-ethyl-3-(4-methoxyphenyl)-5-{[2′-(5-oxo-4,5-dihydro-1,2,4-oxadiazol-3-yl)biphenyl-4-yl]methyl}-6-propylpyrimidin-4(3H)-one potassium salt]	1.5 nM	31%	
CCCc1nc(C)n(-c2ccc(O[C@@H]3C[C@@H](C)O[C@@H](C)C3)cc2)c(=O)c1Cc1ccc(-c2ccccc2-c2noc(=O)[nH]2)cc1F [Example 338, 3-(4-{[(2R,4s,6S)-2,6-dimethyltetrahydro-2H-pyran-4-yl]oxy}phenyl)-5-{[3-fluoro-2′-(5-oxo-4,5-dihydro-1,2,4-oxadiazol-3-yl)biphenyl-4-yl]methyl}-2-methyl-6-propylpyrimidin-4(3H)-one]	1.8 nM		32.5%
CCCc1nc(C)n(-c2ccc(OC(C)C)cc2)c(=O)c1Cc1ccc(-c2ccccc2-c2noc(=O)[nH]2)c(F)c1 [Example 401, 5-{[2-fluoro-2′-(5-oxo-4,5-dihydro-1,2,4-oxadiazol-3-yl)biphenyl-4-yl]methyl}-3-(4-isopropoxyphenyl)-2-methyl-6-propylpyrimidin-4(3H)-one]	1.5 nM		25.3%
CCCc1nc(C)n(-c2ccc(OC(C)C)cc2)c(=O)c1Cc1ccc(-c2ccccc2-c2noc(=O)[nH]2)c(OC)c1 [Example 400, 3-(4-isopropoxyphenyl)-5-{[2-methoxy-2′-(5-oxo-4,5-dihydro-1,2,4-oxadiazol-3-yl)biphenyl-4-yl]methyl}-2-methyl-6-propylpyrimidin-4(3H)-one]	2.8 nM		21.3%
CCCCc1nc(C)n(C(C)c2ccccc2)c(=O)c1Cc1ccc(-c2ccccc2-c2noc(=O)[nH]2)cc1 (stereo not shown) [Example 67, 6-butyl-2-methyl-5-{[2′-(5-oxo-4,5-dihydro-1,2,4-oxadiazol-3-yl)biphenyl-4-yl]methyl}-3-(1-phenylethyl)pyrimidin-4(3H)-one]	2 nM		49.4%
CCCc1nc(CC)n(-c2ccc(OC3(CO)CCCC3)cc2)c(=O)c1Cc1ccc(-c2ccccc2-c2noc(=O)[nH]2)cc1 [Example 390, 2-ethyl-3-(4-{[1-(hydroxymethyl)cyclopentyl]oxy}phenyl)-5-{[2′-(5-oxo-4,5-dihydro-1,2,4-oxadiazol-3-yl)biphenyl-4-yl]methyl}-6-propylpyrimidin-4(3H)-one]	1.2 nM		19.9%
CCCc1nc(C)n(-c2ccc(OC3CCC(=O)C(C)C3)cc2)c(=O)c1Cc1ccc(-c2ccccc2-c2noc(O)n2)cc1 (stereo not shown) [Example 356, 2-methyl-3-{4-[(3-methyl-4-oxocyclohexyl)oxy]phenyl}-5-{[2′-(5-oxo-4,5-dihydro-1,2,4-oxadiazol-3-yl)biphenyl-4-yl]methyl}-6-propylpyrimidin-4(3H)-one]	1.1 nM		16.6%
CCCCc1nc(C(C)C)n(-c2ccc3c(c2)CCO3)c(=O)c1Cc1ccc(-c2ccccc2-c2noc(=O)[nH]2)cc1 [Example 118, 6-butyl-3-(2,3-dihydro-1-benzofuran-5-yl)-2-isopropyl-5-{[2′-(5-oxo-4,5-dihydro-1,2,4-oxadiazol-3-yl)biphenyl-4-yl]methyl}pyrimidin-4(3H)-one]	1.8 nM		50.2%
CCCc1nc(C)c(-c2ccc(OC(C)C)nc2)c(=O)n1Cc1ccc(-c2ccccc2-c2noc(=O)[nH]2)cc1F [Example 482, 3-{[3-fluoro-2′-(5-oxo-4,5-dihydro-1,2,4-oxadiazol-3-yl)biphenyl-4-yl]methyl}-5-(6-isopropoxypyridin-3-yl)-6-methyl-2-propylpyrimidin-4(3H)-one]	1.9 nM		30.4%
CCCc1nc(C)n(OC2CCOCC2)c(=O)c1Cc1ccc(-c2ccccc2-c2noc(=O)[nH]2)cc1 [Example 379, 2-methyl-5-{[2′-(5-oxo-4,5-dihydro-1,2,4-oxadiazol-3-yl)biphenyl-4-yl]methyl}-6-propyl-3-(tetrahydro-2H-pyran-4-yloxy)pyrimidin-4(3H)-one]	3.4 nM		31%
CCCCc1nc(C)c(C(=O)c2ccccc2)c(=O)n1Cc1ccc(-c2ccccc2-c2noc(=O)[nH]2)cc1 [Example 453, 5-benzoyl-2-butyl-6-methyl-3-{[2′-(5-oxo-4,5-dihydro-1,2,4-oxadiazol-3-yl)biphenyl-4-yl]methyl}pyrimidin-4(3H)-one]	2.9 nM		22.5%
